The values that follow come from patent publication US12139520B2 (priority 2020, dated 2024).

One data set deals with T1, hAMY3 receptor (Homo sapiens, UniProt O60896+P30988).
T1 sequence (P30988 25-474): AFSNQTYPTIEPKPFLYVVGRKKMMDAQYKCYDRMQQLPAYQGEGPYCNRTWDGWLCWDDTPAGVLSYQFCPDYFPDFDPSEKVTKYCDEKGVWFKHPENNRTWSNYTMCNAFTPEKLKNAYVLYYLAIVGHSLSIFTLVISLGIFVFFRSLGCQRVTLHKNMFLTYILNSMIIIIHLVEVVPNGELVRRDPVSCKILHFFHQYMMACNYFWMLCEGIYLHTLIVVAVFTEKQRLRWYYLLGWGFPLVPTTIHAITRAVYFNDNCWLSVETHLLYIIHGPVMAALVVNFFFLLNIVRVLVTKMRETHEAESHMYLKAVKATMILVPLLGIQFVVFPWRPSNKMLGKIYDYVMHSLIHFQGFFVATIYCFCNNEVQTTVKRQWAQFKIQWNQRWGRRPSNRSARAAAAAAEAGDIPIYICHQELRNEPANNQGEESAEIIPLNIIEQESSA
T1 sequence (O60896 24-148 partner): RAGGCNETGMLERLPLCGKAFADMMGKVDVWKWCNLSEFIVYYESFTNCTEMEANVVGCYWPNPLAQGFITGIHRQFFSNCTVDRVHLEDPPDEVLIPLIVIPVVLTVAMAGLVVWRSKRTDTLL
Put plainly: cAMP assay for in vitro receptor activation, hAMY3-R. The settings on record: cAMP assay, hAMY3 receptor; read-out: hAMY3R EC50. Format: cell-based. A digest of the protocol: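 Graded compound concentrations were applied for 30 min at room temperature to stably hAMY3-expressing cells in DPBS, 0.05% casein, 0.5 mM IBMX; cAMP detected by TR-FRET.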

Data set [1] in a line: Physical stability of peptide analogues (Thioflavin T fibrillation). Format: physicochemical. To be noted: maximum ThT signal normalized between hAMY maximum and buffer background; 40° C., shaking, four days; pH 7 per table title. An outline of the steps: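 Samples are stressed at 40 °C for four days, being shaken at 700 rpm before each 10-min fluorescence reading of 4 μM Thioflavin T. Buffers were pH 4 acetate or pH 7 phosphate. Reported values are smoothed maximum ThT signals as a percentage of the hAMY-to-background range.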

Bridge positions count the residues as written; N and C are the ends. Square brackets hold non-standard residues; d marks the D form. Peptide text beside a SMILES is read from it. Hyp = O=C(O)[C@@H]1C[C@@H](O)CN1

Broadly, the EC50 is the concentration that produces a half-maximal response. With `CC[C@H](C)[C@H](NC(=O)[C@H](CCC(N)=O)NC(=O)[C@H](Cc1c[nH]cn1)NC(=O)[C@H](C)NC(=O)[C@H](CC(C)C)NC(=O)[C@H](CCCNC(=N)N)NC(=O)[C@H](CCC(N)=O)NC(=O)[C@@H](NC(=O)[C@@H](NC(=O)[C@@H]1CSSC[C@H](NC(=O)CN)C(=O)N[C@@H](CCCNC(=N)N)C(=O)N[C@@H]([C@@H](C)O)C(=O)NCC(=O)N[C@@H]([C@@H](C)O)C(=O)N1)[C@@H](C)O)C(C)C)C(=O)N[C@@H](Cc1ccc(O)cc1)C(=O)N[C@@H](CCC(N)=O)C(=O)N[C@@H](Cc1ccccc1)C(=O)N[C@H](C(=O)N[C@@H](CC(=O)O)C(=O)N[C@@H](CCCCN)C(=O)N[C@@H](Cc1ccccc1)C(=O)N[C@@H](CCCCN)C(=O)N[C@@H](CC(=O)O)C(=O)N[C@@H](CC(N)=O)C(=O)N[C@H](C(=O)N[C@@H](C)C(=O)N1CCC[C@H]1C(=O)N[C@@H](CCCNC(=N)N)C(=O)N[C@@H](CO)C(=O)N[C@@H](CCCCN)C(=O)N[C@H](C(=O)N[C@@H](CO)C(=O)N1CCC[C@H]1C(=O)N[C@@H](CCC(N)=O)C(=O)N[C@H](C(=O)N[C@@H](Cc1c[nH]c2ccccc12)C(N)=O)[C@@H](C)O)[C@@H](C)CC)C(C)C)[C@@H](C)O` [compound 184] (H-GCRTGTCTVQRLAHQIYQFTDKFKDNVAPRSKISPQTW-NH2; disulfide 2-7; N-terminus assumed), the concentration for a half-maximal effect (EC50) on hAMY3 receptor was found to be 90 pM. In addition, the “Max ThT signal (%)” value in data set [1] was 0.800%.
As for `CC[C@H](C)[C@H](NC(=O)[C@H](CC(N)=O)NC(=O)[C@H](CO)NC(=O)[C@H](CCCNC(=N)N)NC(=O)[C@@H]1CCCN1C(=O)[C@H](C)NC(=O)[C@@H](NC(=O)[C@H](CC(N)=O)NC(=O)[C@H](CC(=O)O)NC(=O)[C@H](CCCCN)NC(=O)[C@H](CC(=O)O)NC(=O)[C@H](CCCCN)NC(=O)[C@H](CC(=O)O)NC(=O)[C@@H](NC(=O)[C@H](Cc1ccccc1)NC(=O)[C@H](CCC(N)=O)NC(=O)[C@H](Cc1ccc(O)cc1)NC(=O)[C@@H](NC(=O)[C@H](CCC(N)=O)NC(=O)[C@H](Cc1c[nH]cn1)NC(=O)[C@H](C)NC(=O)[C@H](CC(C)C)NC(=O)[C@H](CCCNC(=N)N)NC(=O)[C@H](CCC(N)=O)NC(=O)[C@@H](NC(=O)[C@@H](NC(=O)[C@@H]1CSSC[C@H](NC(=O)CN)C(=O)N[C@@H](CCCNC(=N)N)C(=O)N[C@@H]([C@@H](C)O)C(=O)NCC(=O)N[C@@H]([C@@H](C)O)C(=O)N1)[C@@H](C)O)C(C)C)[C@@H](C)CC)[C@@H](C)O)C(C)C)C(=O)NCC(=O)N1CCC[C@H]1C(=O)N[C@@H](CCC(N)=O)C(=O)NCC(=O)N[C@@H](Cc1ccc(O)cc1)C(N)=O` [compound 191] (H-GCRTGTCTVQRLAHQIYQFTDKDKDNVAPRSNIGPQGY-NH2; disulfide 2-7; N-terminus assumed), the EC50 on hAMY3 receptor stood at 98 pM. For the same compound, in data set [1], the “Max ThT signal (%)” value is recorded as 6.300%.
For `CC[C@H](C)[C@H](NC(=O)[C@H](CCC(N)=O)NC(=O)[C@H](Cc1c[nH]cn1)NC(=O)[C@H](C)NC(=O)[C@H](CC(C)C)NC(=O)[C@H](CCCNC(=N)N)NC(=O)[C@H](CCC(N)=O)NC(=O)[C@@H](NC(=O)[C@@H](NC(=O)[C@@H]1CSSC[C@H](NC(=O)[C@@H](N)CCCCN)C(=O)N[C@@H](CCCNC(=N)N)C(=O)N[C@@H](CCSC)C(=O)NCC(=O)N[C@@H]([C@@H](C)O)C(=O)N1)[C@@H](C)O)C(C)C)C(=O)N[C@@H](Cc1ccc(O)cc1)C(=O)N[C@@H](CCC(N)=O)C(=O)N[C@@H](Cc1ccccc1)C(=O)N[C@H](C(=O)N[C@@H](CC(=O)O)C(=O)N[C@@H](CCCCN)C(=O)N[C@@H](CC(=O)O)C(=O)N[C@@H](CCCCN)C(=O)N[C@@H](CC(=O)O)C(=O)N[C@@H](CC(N)=O)C(=O)N[C@H](C(=O)N[C@@H](C)C(=O)N1CCC[C@H]1C(=O)N[C@@H](CCCNC(=N)N)C(=O)N[C@@H](CO)C(=O)N[C@@H](CCCCN)C(=O)N[C@H](C(=O)N[C@@H](CO)C(=O)N1CCC[C@H]1C(=O)N[C@@H](CCC(N)=O)C(=O)N[C@H](C(=O)N1C[C@H](O)C[C@H]1C(N)=O)[C@@H](C)O)[C@@H](C)CC)C(C)C)[C@@H](C)O` [compound 194] (H-KCRMGTCTVQRLAHQIYQFTDKDKDNVAPRSKISPQT[Hyp]-NH2; disulfide 2-7; N-terminus assumed), the concentration giving a half-maximal response (EC50) at hAMY3 receptor is 112 pM. Also, the “Max ThT signal (%)” value in data set [1] was 6.000%.
The matching figures for `CC[C@H](C)[C@H](NC(=O)[C@H](CCC(N)=O)NC(=O)[C@H](Cc1c[nH]cn1)NC(=O)[C@H](C)NC(=O)[C@H](CC(C)C)NC(=O)[C@H](CCCNC(=N)N)NC(=O)[C@H](CCC(N)=O)NC(=O)[C@@H](NC(=O)[C@@H](NC(=O)[C@@H]1CSSC[C@H](NC(=O)CN)C(=O)N[C@@H](CCCNC(=N)N)C(=O)N[C@@H]([C@@H](C)O)C(=O)NCC(=O)N[C@@H]([C@@H](C)O)C(=O)N1)[C@@H](C)O)C(C)C)C(=O)N[C@@H](Cc1ccc(O)cc1)C(=O)N[C@@H](CCC(N)=O)C(=O)N[C@@H](Cc1ccccc1)C(=O)N[C@H](C(=O)N[C@@H](CC(=O)O)C(=O)N[C@@H](CCCCN)C(=O)N[C@@H](Cc1ccccc1)C(=O)N[C@@H](CCCCN)C(=O)N[C@@H](CC(=O)O)C(=O)N[C@@H](CC(N)=O)C(=O)N[C@H](C(=O)N[C@@H](C)C(=O)N1CCC[C@H]1C(=O)N[C@@H](CCCNC(=N)N)C(=O)N[C@@H](CO)C(=O)N[C@@H](CCCCN)C(=O)N[C@H](C(=O)N[C@@H](CO)C(=O)N1CCC[C@H]1C(=O)N[C@@H](CCC(N)=O)C(=O)N[C@@H](Cc1c[nH]cn1)C(=O)N1C[C@H](O)C[C@H]1C(N)=O)[C@@H](C)CC)C(C)C)[C@@H](C)O` [compound 201] (H-GCRTGTCTVQRLAHQIYQFTDKFKDNVAPRSKISPQH[Hyp]-NH2; disulfide 2-7; N-terminus assumed): 126 pM and 1.000%.
Consider `CC[C@H](C)[C@H](NC(=O)[C@H](CCC(N)=O)NC(=O)[C@H](Cc1c[nH]cn1)NC(=O)[C@H](C)NC(=O)[C@H](CC(C)C)NC(=O)[C@H](CCCNC(=N)N)NC(=O)[C@H](CCC(N)=O)NC(=O)[C@@H](NC(=O)[C@@H](NC(=O)[C@@H]1CSSC[C@H](NC(=O)[C@@H](N)CCCCN)C(=O)N[C@@H](CCCNC(=N)N)C(=O)N[C@@H](Cc2ccccc2)C(=O)NCC(=O)N[C@@H]([C@@H](C)O)C(=O)N1)[C@@H](C)O)C(C)C)C(=O)N[C@@H](Cc1ccc(O)cc1)C(=O)N[C@@H](CCC(N)=O)C(=O)N[C@@H](Cc1ccccc1)C(=O)N[C@H](C(=O)N[C@@H](CC(=O)O)C(=O)N[C@@H](CCCCN)C(=O)N[C@@H](CC(=O)O)C(=O)N[C@@H](CCCCN)C(=O)N[C@@H](CC(=O)O)C(=O)N[C@@H](CC(N)=O)C(=O)N[C@H](C(=O)N[C@@H](C)C(=O)N1CCC[C@H]1C(=O)N[C@@H](CCCNC(=N)N)C(=O)N[C@@H](CO)C(=O)N[C@@H](CCCCN)C(=O)N[C@H](C(=O)N[C@@H](CO)C(=O)N1CCC[C@H]1C(=O)N[C@@H](CCC(N)=O)C(=O)N[C@H](C(=O)N1C[C@H](O)C[C@H]1C(N)=O)[C@@H](C)O)[C@@H](C)CC)C(C)C)[C@@H](C)O` [compound 205] (H-KCRFGTCTVQRLAHQIYQFTDKDKDNVAPRSKISPQT[Hyp]-NH2; disulfide 2-7; N-terminus assumed), for which the EC50 on hAMY3 receptor is 130 pM. The “Max ThT signal (%)” value in data set [1] stood at 7.800%.
As to `CC[C@H](C)[C@H](NC(=O)[C@H](CCC(N)=O)NC(=O)[C@H](Cc1c[nH]cn1)NC(=O)[C@H](C)NC(=O)[C@H](CC(C)C)NC(=O)[C@H](CCCNC(=N)N)NC(=O)[C@H](CCC(N)=O)NC(=O)[C@@H](NC(=O)[C@@H](NC(=O)[C@@H]1CSSC[C@H](NC(=O)CN)C(=O)N[C@@H](CCCNC(=N)N)C(=O)N[C@@H]([C@@H](C)O)C(=O)NCC(=O)N[C@@H]([C@@H](C)O)C(=O)N1)[C@@H](C)O)C(C)C)C(=O)N[C@@H](Cc1ccc(O)cc1)C(=O)N[C@@H](CCC(N)=O)C(=O)N[C@@H](Cc1ccccc1)C(=O)N[C@H](C(=O)N[C@@H](CC(=O)O)C(=O)N[C@@H](CCCCN)C(=O)N[C@@H](CC(=O)O)C(=O)N[C@@H](CCCCN)C(=O)N[C@@H](CC(=O)O)C(=O)N[C@@H](CC(N)=O)C(=O)N[C@H](C(=O)N[C@@H](C)C(=O)N1CCC[C@H]1C(=O)N[C@@H](CCCNC(=N)N)C(=O)N[C@H](C(=O)N[C@@H](CC(N)=O)C(=O)N[C@H](C(=O)N[C@@H](CO)C(=O)N1CCC[C@H]1C(=O)N[C@@H](CCC(N)=O)C(=O)NCC(=O)N1C[C@H](O)C[C@H]1C(N)=O)[C@@H](C)CC)[C@@H](C)O)C(C)C)[C@@H](C)O` [compound 214] (H-GCRTGTCTVQRLAHQIYQFTDKDKDNVAPRTNISPQG[Hyp]-NH2; disulfide 2-7; N-terminus assumed), the EC50 on hAMY3 receptor amounted to 157 pM. Moreover, the “Max ThT signal (%)” value in data set [1] worked out at 2.700%.
